Reference: patent US12036199B1 (Dynamic Biologics Inc., priority 2023, dated 2024)

Assays:
[1] = In vitro stability of 10 μM DB104 incubated in fresh human plasma (HRMS / LC-MS detection of DB104, intermediates and L-DOPA); assay type: in vitro ADME; details: for degradation product of DB104 observed in human plasma: human plasma incubation of DB104; for half-life at 10 μM: human, fresh human plasma
Procedure: (§1) 10 μM DB104 (DB104 is identified above and is one of the Derivatives of the present invention) was incubated in fresh plasma and phosphate buffer saline (PBS) in multiple aliquots, and each aliquot was divided into two equal halves at the following time points: 0, 1, 2, 4, 6, 24, 48, 72, 96, 120, 144, 168, 192, 216, 240, and 264 h. The first half was quenched with ACN:MeOH containing 1% formic acid and analyzed on the high-resolution mass spectroscopy (HRMS) to detect DB104 and all other possible intermediates. Labetalol was used as internal standard (IS). The other half was quenched with perchloric acid and analyzed on an AB Sciex 7500 mass spectrometer to detect L-DOPA. Dopamine-d4 will be used as IS.
(§2) Possible intermediates structures from the steps above are as follows:
(§3) DB104 took about 4 h and 1-4 h to get fully solubilized in human plasma and PBS, respectively. This was evident by initial increase in peak area followed by degradation. All peak area ratios were normalized to the max peak area ratio value observed. […] DB104M2 was not observed in either human plasma or PBS.

[2] = In vitro stability of 10 μM DB104 incubated in phosphate buffer saline (PBS); assay type: physicochemical; details: for half-life at 10 μM: phosphate buffer saline (PBS)
Procedure: as §1, §2, §3

[3] = Phase III clinical trials; cited from earlier work
[4] = cited from earlier work
[5] = cited from earlier work; remark: listed apart in the source

CCCCCCCCCCCCOC(=O)C(N)Cc1ccc(O)c(O)c1 (stereo not shown) [DB104M3]
degradation product of DB104 observed in human plasma [1]: observed
degradation product of DB104 observed in PBS ([2]; PBS incubation of DB104): observed

CCOC(=O)[C@@H](N)Cc1ccc(O)c(O)c1 [Etilevodopa]
efficacy compared with Levodopa [3]: less efficacious than Levodopa

CCCCCCCCCCCCOC(=O)C(N)Cc1ccc(O)c(OC(=O)CCCCCCCCCCC)c1 (stereo not shown) [DB104M4]
degradation product of DB104 observed in human plasma [1]: observed
degradation product of DB104 observed in PBS ([2]; PBS incubation of DB104): observed
rank of degradant in PBS ([2]; PBS incubation of DB104): major degradant

CCCCCCCCCCCC(=O)Oc1ccc(CC(N)C(=O)O)cc1OC(=O)CCCCCCCCCCC (stereo not shown) [DB104M1]
degradation product of DB104 observed in human plasma [1]: observed in PBS only
degradation product of DB104 observed in PBS ([2]; PBS incubation of DB104): observed in PBS only

C[C@@](Cc1ccc(O)c(O)c1)(NN)C(=O)O [Carbidopa]
reduction of the amount of levodopa required to produce a given response ([4]; carbidopa administered with levodopa): 75%

CCN(CC)C(=O)/C(C#N)=C/c1cc(O)c(O)c([N+](=O)[O-])c1 [entacapone]
increase of levodopa plasma exposure ([4]; 200 mg entacapone co-administered with levodopa/carbidopa): 35-40%

CCCCCCCCCCCCOC(=O)[C@@H](N)Cc1ccc(OC(=O)CCCCCCCCCCC)c(OC(=O)CCCCCCCCCCC)c1 [DB104, (S)-4-(2-amino-3-(dodecyloxy)-3-oxopropyl)-1,2-phenylene didodecanoate]
time to get fully solubilized in human plasma ([1]; human plasma, initial increase in peak area): about 4 h
half-life at 10 μM ([1]; 10 μM DB104, fresh human plasma, 0-264 h, read-out: In vitro half-life in human plasma (converted)): 13.1 ± 1.4 h
half-life at 10 μM ([1]; human plasma, summary estimate, read-out: in vitro half-life estimated, human plasma (converted)): ~12 h
time over which L-DOPA is formed at detectable amounts, PBS ([2]; L-DOPA formed from DB104 in PBS): up to 72 h
time to get fully solubilized in PBS ([2]; PBS, initial increase in peak area): 1 to 4 h
half-life at 10 μM ([2]; 10 μM DB104, PBS, 0-264 h, read-out: In vitro half-life in PBS (converted)): 12.4 ± 2.6 h
half-life at 10 μM ([2]; PBS, summary estimate, read-out: in vitro half-life estimated, PBS (converted)): ~12 h

CCCCCCCCCCCC(=O)Oc1cc(CC(N)C(=O)O)ccc1O (stereo not shown) [DB104M2]
degradation product of DB104 observed in human plasma [1]: not observed
degradation product of DB104 observed in PBS ([2]; PBS incubation of DB104): not observed

N[C@@H](Cc1ccc(O)c(O)c1)C(=O)O [Levodopa, (S)-2-amino-3-(3,4-dihydroxyphenyl)propanoic acid, reference compound]
degradation product of DB104 observed in human plasma [1]: observed
Plasma half-life of levodopa alone [5]: ~0.833 h
degradation product of DB104 observed in PBS ([2]; PBS incubation of DB104): observed
